Test results as given in patent publication US8536187B2 (Gilead Sciences, Inc., priority 2008, dated 2013).

Columns and labels:
[1] = CC50 assay (CellTiter-Glo) in Huh-7 HCV replicon cells; format: cell-based; settings: human
Summary of the method: (§1)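 Cytotoxicity (CC50) read by CellTiter-Glo luminescence after 10 min, and antiviral EC50 by luciferase signal after 30 min lysis with substrate, both at room temperature. Preceding step: 3-day exposure of 6000 Huh-7 HCV replicon cells per well to compound dilution series at 37° C, 5% CO2, in 0.5% DMSO.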

[2] = test system: HCV replicon in human hepatoma Huh-7 cell line; assay: Anti-HCV replicon assay, EC50 (luciferase luminescence); format: cell-based; settings: Hepatitis C virus, Huh-7, 72 h
Summary of the method: as §1

FC(F)Oc1ccc(-c2ccc3nc(NCc4ccc(-n5cncn5)cc4)nc(NCC(F)(F)F)c3n2)cn1 [Example 245, N^2-(4-(1H-1,2,4-triazol-1-yl)benzyl)-6-(6-(difluoro-methoxy)pyridin-3-yl)-N^4-(2,2,2-trifluoroethyl)pyrido [3,2-d]pyrimidine-2,4-diamine]
CC50 at 3 days ([1]; Table 2, 3 days incubation): > 10000 nM | EC50 [2]: < 100 nM

c1ncn(-c2ccc(CNc3nc(OC4CC4)c4nc(-c5ccc(OC6CCC6)nc5)ccc4n3)cc2)n1 [Example 251, N-(4-(1H-1,2,4-triazol-1-yl)benzyl)-6-(6-cyclobutoxy-pyridin-3-yl)-4-cyclopropoxy-pyrido[3,2-d]pyrimidin-2-amine]
CC50 at 3 days ([1]; Table 2, 3 days incubation): 1000 to 10000 nM | EC50 [2]: 100 to 250 nM

NS(=O)(=O)c1ccc(CNc2nc(OC3CC3)c3nc(C#CC4CC4)ccc3n2)cc1 [Example 286, 4-((4-cyclopropoxy-6-(2-cyclopropylethynyl)pyrido [3,2-d]pyrimidin-2-ylamino)methyl)benzenesulfonamide]
CC50 at 3 days ([1]; Table 2, 3 days incubation): > 10000 nM | EC50 [2]: 100 to 250 nM

CS(=O)(=O)c1cc(-c2ccc3nc(NCc4cc(F)cc(S(N)(=O)=O)c4)nc(NC4(C(F)(F)F)CC4)c3n2)ccc1Cl [Example 36, 3-((6-(4-chloro-3-(methylsulfonyl)phenyl)-4-(1-(trifluoromethyl)cyclopropyl-amino)pyrido[3,2-d]pyrimidin-2-ylamino)methyl)-5-fluorobenzenesulfonamide]
CC50 at 3 days ([1]; Table 2, 3 days incubation): 1000 to 10000 nM | EC50 [2]: < 100 nM

NS(=O)(=O)c1ccc(CNc2nc(NC3(C(F)(F)F)CC3)c3nc(-c4cccc(N5CCCS5(=O)=O)c4)ccc3n2)cc1 [Example 51, 4-((6-(3-(1,1-dioxo-isothiazolidin-2-yl)phenyl)-4-(1-(trifluoromethyl)cyclopropyl-amino)pyrido[3,2-d]pyrimidin-2-ylamino)methyl)benzene-sulfonamide]
CC50 at 3 days ([1]; Table 2, 3 days incubation): 1000 to 10000 nM | EC50 [2]: 250 to 2000 nM

C[C@@H](Nc1nc(NCC(F)(F)F)c2nc(-c3cccc(S(C)(=O)=O)c3)ccc2n1)c1ccc(S(N)(=O)=O)cc1 [Example 17, (R)-4-{1-[6-(3-Methanesulfonyl-phenyl)-4-(2,2,2-trifluoro-ethylamino)-pyrido[3,2-d]pyrimidin-2-ylamino]-ethyl}-benzenesulfonamide]
CC50 at 3 days ([1]; Table 1, 3 days incubation): 10000 to 25000 nM | EC50 [2]: < 100 nM

NS(=O)(=O)c1ccc(CNc2nc(NCC(F)(F)F)c3nc(-c4ccc(F)cc4)ccc3n2)cc1C(F)(F)F [Example 9, 4-{[6-(4-Fluoro-phenyl)-4-(2,2,2-trifluoro-ethylamino)-pyrido[3,2-d]pyrimidin-2-ylamino]-methyl}-2-trifluoromethyl-benzenesulfonamide]
CC50 at 3 days ([1]; Table 1, 3 days incubation): > 25000 nM | EC50 [2]: 250 to 2000 nM

CS(=O)(=O)c1cccc(-c2ccc3nc(NCc4ccc(-n5cncn5)cc4)nc(O[C@@H]4C[C@@H]5C[C@@H]5C4)c3n2)c1 [Example 194, N-(4-(1H-1,2,4-triazol-1-yl)benzyl)-4-((1S,3r,5R)-bicyclo[3.1.0]hexan-3-yloxy)-6-(3-(methylsulfonyl)phenyl) pyrido[3,2-d]pyrimidin-2-amine]
CC50 at 3 days ([1]; Table 2, 3 days incubation): 1000 to 10000 nM | EC50 [2]: < 100 nM

FC(F)(F)C1(Nc2nc(NCc3ccc(-n4cncn4)cc3)nc3ccc(-c4ccc(NC5CC5)nc4)nc23)CC1 [Example 127, N^2-(4-(1H-1,2,4-triazol-1-yl)benzyl)-6-(6-(cyclopropylamino)pyridin-3-yl)-N^4-(1-(trifluoromethyl)cyclopropyl)pyrido[3,2-d] pyrimidine-2,4-diamine]
CC50 at 3 days ([1]; Table 2, 3 days incubation): 1000 to 10000 nM | EC50 [2]: < 100 nM

COc1ccc(-c2ccc3nc(NCc4ccc(S(N)(=O)=O)cc4)nc(NCC(F)(F)F)c3n2)cc1C(F)(F)F [Example 228, 4-((6-(4-methoxy-3-(trifluoromethyl)phenyl)-4-(2,2,2-trifluoroethylamino)pyrido[3,2-d]pyrimidin-2-ylamino)methyl)benzene-sulfonamide]
CC50 at 3 days ([1]; Table 2, 3 days incubation): > 10000 nM | EC50 [2]: 250 to 2000 nM

NS(=O)(=O)c1ccc(CNc2nc(NCC(F)(F)F)c3nc(-c4ccc(OC(F)F)nc4)ccc3n2)cc1 [Example 244, 4-((6-(6-(difluoromethoxy)pyridin-3-yl)-4-(2,2,2-trifluoroethylamino)pyrido [3,2-d]pyrimidin-2-ylamino)methyl)benzene-sulfonamide]
CC50 at 3 days ([1]; Table 2, 3 days incubation): > 10000 nM | EC50 [2]: 100 to 250 nM

CN1CCN(c2ccc(-c3ccc4nc(NCc5cccc(S(C)(=O)=O)c5)nc(NC5(C(F)(F)F)CC5)c4n3)cc2)C1=O [Example 50, 1-(4-(2-(3-(methylsulfonyl)benzylamino)-4-(1-(trifluoromethyl)cyclopropylamino)pyrido[3,2-d]pyrimidin-6-yl)phenyl)-3-methylimidazolidin-2-one]
CC50 at 3 days ([1]; Table 2, 3 days incubation): 1000 to 10000 nM | EC50 [2]: < 100 nM

Fc1ccc(-c2ccc3nc(NCc4ccc(-n5ccnc5)cc4)nc(NC4(C(F)(F)F)CC4)c3n2)cc1 [Example 126, N^2-(4-(1H-imidazol-1-yl)benzyl)-6-(4-fluorophenyl)-N^4-(1-(trifluoromethyl)cyclopropyl)pyrido[3,2-d] pyrimidine-2,4-diamine]
CC50 at 3 days ([1]; Table 2, 3 days incubation): 1000 to 10000 nM | EC50 [2]: 250 to 2000 nM

CS(=O)(=O)c1cccc(-c2ccc3nc(NCc4ccc(-n5cncn5)nc4)nc(NCC(F)(F)F)c3n2)c1 [Example 184, N^2-((6-(1H-1,2,4-triazol-1-yl)pyridin-3-yl)methyl)-6-(3-(methylsulfonyl)phenyl)-N^4-(2,2,2-trifluoroethyl)pyrido [3,2-d]pyrimidine-2,4-diamine]
CC50 at 3 days ([1]; Table 2, 3 days incubation): 1000 to 10000 nM | EC50 [2]: < 100 nM

Cc1ccc(-c2ccc3nc(NCc4ccc(S(N)(=O)=O)cc4)nc(NC4(C(F)(F)F)CC4)c3n2)cc1S(C)(=O)=O [Example 29, 4-{[6-(3-methanesulfonyl-4-methylphenyl)-4-(1-trifluoromethyl-cyclopropylamino)-pyrido[3,2-d]pyrimidin-2-ylamino]-methyl}-benzenesulfonamide]
CC50 at 3 days ([1]; Table 2, 3 days incubation): 1000 to 10000 nM | EC50 [2]: < 100 nM

CC(Cn1cncn1)Nc1nc(NC2(C(F)(F)F)CC2)c2nc(-c3ccc(N)nc3)ccc2n1 (centres unmarked) [Example 31, 6-(6-amino-pyridin-3-yl)-N2-(1-methyl-2-[1,2,4]triazol-1-yl-ethyl)-N4-(1-trifluoromethyl-cyclopropyl)-pyrido[3,2-d]pyrimidine-2,4-diamine]
CC50 at 3 days ([1]; Table 2, 3 days incubation): > 10000 nM | EC50 [2]: < 100 nM

CCOc1ccc(-c2ccc3nc(N[C@H](C)Cn4cncn4)nc(NCC(F)(F)F)c3n2)cn1 [Example 232, N^2-((R)-1-(1H-1,2,4-triazol-1-yl)propan-2-yl)-6-(6-ethoxypyridin-3-yl)-N^4-(2,2,2-trifluoroethyl)pyrido[3,2-d] pyrimidine-2,4-diamine]
CC50 at 3 days ([1]; Table 2, 3 days incubation): 1000 to 10000 nM | EC50 [2]: < 100 nM

CC#Cc1ccc2nc(NCc3cc(Cl)cc(S(N)(=O)=O)c3)nc(OC3(C)CC3)c2n1 [Example 311, 3-chloro-5-((4-(1-methylcyclo-propoxy)-6-(prop-1-ynyl)pyrido [3,2-d]pyrimidin-2-ylamino)methyl)benzenesulfonamide]
CC50 at 3 days ([1]; Table 2, 3 days incubation): > 10000 nM | EC50 [2]: < 100 nM

CCOc1ccc(-c2ccc3nc(NCc4ccc(-n5cncn5)cc4)nc(NCC(F)(F)F)c3n2)cn1 [Example 229, N^2-(4-(1H-1,2,4-triazol-1-yl)benzyl)-6-(6-ethoxypyridin-3-yl)-N^4-(2,2,2-trifluoroethyl) pyrido[3,2-d]pyrimidine-2,4-diamine]
CC50 at 3 days ([1]; Table 2, 3 days incubation): > 10000 nM | EC50 [2]: < 100 nM

CS(=O)(=O)c1cc(-c2ccc3nc(NCc4ccc(S(N)(=O)=O)cc4)nc(NCC(F)(F)F)c3n2)ccc1F [Example 21, 4-{[6-(4-Fluoro-3-methanesulfonyl-phenyl)-4-(2,2,2-trifluoro-ethylamino)-pyrido[3,2-d]pyrimidin-2-ylamino]-methyl}-benzenesulfonamide]
CC50 at 3 days ([1]; Table 1, 3 days incubation): > 25000 nM | EC50 [2]: < 100 nM

C[C@@H](Nc1nc(NCC(F)(F)F)c2nc(-c3cccc(S(C)(=O)=O)c3)ccc2n1)c1ccc(-n2cncn2)cc1 [Example 170, N^2-((R)-1-(4-(1H-1,2,4-triazol 1-yl)phenyl)ethyl)-6-(3-(methylsulfonyl)phenyl)-N^4-(2,2,2-trifluoroethyl)pyrido [3,2-d]pyrimidine-2,4-diamine]
CC50 at 3 days ([1]; Table 2, 3 days incubation): 1000 to 10000 nM | EC50 [2]: < 100 nM

NS(=O)(=O)c1cc(Cl)cc(CNc2nc(NC3(C(F)(F)F)CC3)c3nc(-c4ccc(NC(=O)C5(C(F)(F)F)CC5)cc4)ccc3n2)c1 [Example 48, 3-chloro-5-((6-(4-(1-(trifluoromethyl)cyclopropyl-carboxamido)phenyl)-4-(1-(trifluoromethyl)cyclopropyl-amino)pyrido[3,2-d]pyrimidin-2-ylamino)methyl)benzene-sulfonamide]
CC50 at 3 days ([1]; Table 2, 3 days incubation): 1000 to 10000 nM | EC50 [2]: < 100 nM

Cc1ccc(-c2ccc3nc(NCc4cccc(S(C)(=O)=O)c4)nc(NC4(C(F)(F)F)CC4)c3n2)cc1S(C)(=O)=O [Example 34, N^2-(3-(methylsulfonyl)benzyl)-6-(4-methyl-3-(methylsulfonyl)phenyl)-N^4-(1-(trifluoromethyl)cyclopropyl) pyrido[3,2-d]pyrimidine-2,4-diamine]
CC50 at 3 days ([1]; Table 2, 3 days incubation): 1000 to 10000 nM | EC50 [2]: < 100 nM

FC(F)(F)C1(Nc2nc(NCc3cccc(-n4cncn4)c3)nc3ccc(-c4ccc(NC5CC5)nc4)nc23)CC1 [Example 70, N^2-(3-(1H-1,2,4-triazol-1-yl)benzyl)-6-(6-(cyclopropylamino)pyridin-3-yl)-N^4-(1-(trifluoromethyl)cyclopropyl) pyrido[3,2-d]pyrimidine-2,4-diamine]
CC50 at 3 days ([1]; Table 2, 3 days incubation): > 10000 nM | EC50 [2]: < 100 nM

COc1ccc(-c2ccc3nc(NCc4cccnc4)nc(NCC(F)(F)F)c3n2)cc1S(C)(=O)=O [Example 166, 6-(4-methoxy-3-(methylsulfonyl)phenyl)-N^2-(pyridin-3-ylmethyl)-N^4-(2,2,2-trifluoroethyl)pyrido [3,2-d]pyrimidine-2,4-diamine]
CC50 at 3 days ([1]; Table 2, 3 days incubation): 1000 to 10000 nM | EC50 [2]: < 100 nM
